Data on 1 compound can be found in article PMC11763059, “GENI as an AMPK Activator Binds α and γ Subunits and Improves the Memory Dysfunction of Alzheimer’s Disease Mouse Models via Autophagy and Neuroprotection” (Antioxidants, 2025).

In test [1] the test system is PC12 cells. The experiment in a line: Autophagy flow assay (CYTO-ID) in PC12 cells. Type of test: cell-based. As to the method: The experiment was carried out according to the instructions of the CYTO-ID autophagy detection kit (Enzo Biochem, New York, NY, USA). In brief, we seeded 7.5 × 10^4 PC12 cells in each well of a 24-well plate using the cell slide method. The cells were incubated for 24 h at 37 °C in a 5% CO2 incubator. The experiment was divided into control (0.5% DMSO), positive control rapamycin (Rap 500 nM + chloroquine (CQ)), GENI treated-group (10 μM GENI + 10 μM CQ), 3-MA inhibitor group (5 mM 3-MA + 10 μM CQ) and GENI + 3MA group (5 mM 3-MA + 10 μM GENI + 10 μM CQ). The optimum concentration of 3MA inhibitor was referenced in the other report. At first, 0.5 mL of serum-free DMEM (plus 1% dual anti-penicillin–streptomycin) containing 3-MA (5 mM) was used to replace the medium in two groups as well as 0.5 mL of serum-free DMEM was added in the other groups, respectively. After treating for 6 h, 0.5 mL of DMEM containing DMSO (0.5%), Rap (500 nM) + CQ (10 μM), GENI (10 μM) + CQ (10 μM), CQ (10 μM), and GENI (10 μM) + CQ (10 μM) was added into the corresponding group, respectively. After 18 h, we removed the medium and washed cells twice with 1× assay buffer containing 5% FBS. We then added CYTO-ID Green detection reagent and Hocchst 33342 nuclear stain to the cells, which were incubated at 37 °C for 45 min. After three washes with 1× assay buffer, we fixed cells with 4% paraformaldehyde for 20 min. After three washes with 1× assay buffer, we observed the cells with an upright two-photon confocal microscope (Olympus FV1000BX-51, Tokyo, Japan).

Test [2] deals with PC12 cells. In words: Total SOD enzymatic activity assay in PC12 cells. Format: cell-based. The conditions noted are these: compared with the H2O2-treated group. How it is done: To determine ROS levels in PC12 cells, we seeded 5 × 10^4 PC12 cells in each well of a 24-well plate. Cells were treated with RES (10 μM) or GENI (1, 3, and 10 μM) for 24 h, followed by 0.8 mM H2O2 for 1 h. DCFH-DA (2,7-dichlorodihydrofluorescein diacetate, final concentration, 10 μM) was then added to each well and incubated for 30 min. Cells were washed with PBS to remove extracellular DCFH-DA, and intercellular ROS was detected by using a SpectraMax M3 multimode microplate reader (Molecular Devices Corporation, San Jose, CA, USA) at an excitation wavelength of 488 nm and an emission wavelength of 525 nm. Meanwhile, DCF in PC12 cells was observed using a fluorescence microscope (HCS, Thermo Fisher, Science, Waltham, MA, USA). To detect malondialdehyde (MDA) content and total SOD enzymatic activities in PC12 cells, we seeded 2 × 10^6 PC12 cells in 60 mm dishes containing 5 mL of DMEM and cultured the cells for 24 h. PC12 cells were treated with RES (10 μM) or GENI (3 or 10 μM) for 24 h and then treated with 0.8 mM H2O2 for 1 h to determine the MDA content and total superoxide dismutase (SOD) activities. Cells were lysed and centrifuged. […] MDA quantification and total SOD activities were determined using MDA and SOD enzyme activity assay kits (Nanjing Jiancheng Bioengineering Institute, Nanjing, China) following the manufacturer’s instructions.

For test [3], the system named is natural aging AD mice. In words: Immunohistochemistry and Western blot of brain in naturally aged AD mice. Type of test: in vivo. To be noted: GENI 25 mg/kg, compared with aged group. How it is done: Each group had 10 mice. GENI was dissolved in ultrapure water and administered by gavage, whereas Dor was dissolved in normal saline. The pH was adjusted to pH 5 with 0.1 M hydrochloric acid to the clarified solution and administered by intraperitoneal injection. The dosing experiment also lasted 10 weeks. Animal behavioral experiments and sampling at the end of the animal experiment were performed as described above.
Firstly, the three mice of each group were subjected to heart perfusion at the end of the animal experiment, and the whole brain was removed and placed in 15 mL of 4% paraformaldehyde and stored at 4 °C for 24 h. Secondly, we changed 4% paraformaldehyde into 15% sucrose solution and stored the solution at 4 °C for 24 h. We then changed the solution to 30% sucrose solution to dehydrate for 2 days. Thirdly, the mouse brain tissue was embedded in a cryo-embedding medium, and about 80 slices with a thickness of 20 μm were cut in the hippocampus using a cryostat (Thermal Fisher, Shanghai, China). The sections of mice in each group were immunohistochemically stained with primary antibodies, such as neuronal nuclear anti gen (NeuN), ionized calcium-binding adapter molecule 1 (Iba-1), inducible nitric oxide synthase (iNOS, pro-inflammatory factors), synaptophysin (Syp), and glial fibrillary acidic protein (GFAP), and secondary antibody. The product number and usage ratios of primary and secondary antibodies are detailed in Supplementary Table S4. Finally, the sections were observed under an upright two-photon confocal microscope (Olympus BX61, Tokyo, Japan) and recorded by a camera. The pictures were digitized with ImageJ software V1.8.0.112 (National Institutes of Health, Bethesda, MD, USA).
Western blot analysis for p-AMPK α, AMPK α, p-mTOR, mTOR, p-ULK1, ULK1, and LC3-I/II was conducted according to the information described in the materials and methods section of Supplementary Information.
1.3. Western blot analysis. […]
The supernatants of each group were used as protein samples. For animal samples, an appropriate amount of tissue, such as cerebral cortex and hippocampus (50–100 mg), of each group was weighed, and we added lysis buffer with 1:9 ratios. After grinding and centrifuging, the supernatants of each group were used as protein samples. The protein concentration was measured with a BCA assay kit (Beijing Cowin Biotech Company, Beijing, China). Sodium dodecyl sulphate polyacrylamide gel electrophoresis (SDS-PAGE) was used to separate proteins (15 μg), which were transferred to PVDF membranes. The membrane was incubated with primary and secondary antibodies (Supplementary Table S5 for details). Antigens were visualised using a high-sensitivity chemiluminescence detection kit (Beijing Cowin Biotech Company, Beijing, China). Bands were quantitatively measured using ImageJ software (National Institutes of Health, Bethesda, MD, USA).
In general terms: In western blotting, separated proteins are transferred to a membrane and probed.

On to `CC(C)CCOC(=O)C1=CO[C@@H](O[C@@H]2O[C@H](CO)[C@@H](O)[C@H](O)[C@H]2O)C2C(CO)=CCC12` (stereo partly shown) [GENI, Geniposidic 4-isoamyl ester], for which the “fluorescence intensity of autophagosomes” value in test [1] (10 μM GENI + 10 μM CQ, compared with the control group) is given as “significantly increased”. The “autophagy effect relative to positive control Rap at 500 nM” value in test [1] (GENI at 10 μM) is recorded as “comparable”. Also, the “total SOD activity” value in test [2] is “increased”. The “APP and Tau of hippocampus CA, DG, and cerebral cortex, Aβ and Tau phosphorylation of cerebral cortex” value in test [3] is given as “significantly decreased”.
